Here are results for 31 compounds from patent US20090209535A1, “6-ETHER/THIOETHER-PURINES AS TOPOISOMERASE II CATALYTIC INHIBITORS AND THEIR USE IN THERAPY” (TOPOTARGET A/S, priority 2005, published 2009).

The target of one data set is topoisomerase II α (Homo sapiens, UniProt P11388). The experiment in a line: Topoisomerase II ATPase assay (coupled, NADH oxidation). Conditions: for inhibition of ATPase activity in the presence of DTT, in words: 10 mM DTT in the reaction buffer. Format: biochemical. Set-up: made in house; host or cells: yeast (over-expressing yeast cells). On the procedure: The reaction was monitored spectrophotometrically at 340 nm using a Bio-Tek EL808 Ultra Micro plate Reader connected to a computer with KC4 Software installed (Bio-Tek Instruments, U.S.). The change in absorbance was related to ADP production using A340^1M=6220 cm^−1. […] The rate of ATP hydrolysis, V, was determined from the linear part of the curve.
The steady-state rate of ATP hydrolysis was determined using a coupled ATPase assay as described herein. […] Error bars represent SEM of two independent experiments each performed in duplicate.
The steady-state rate of ATP hydrolysis was determined as described in for FIG. 3 and as described herein. In this analysis, the rate of ATP hydrolysis in the absence of drug was set to one in all experiments. Error bars represent SEM of 2 or 3 independent experiments each preformed in duplicate.

In data set [1] the target is T1, wild-type human topoisomerase II α (Homo sapiens, UniProt P11388).
T1 construct: made in house; host or cells: yeast (over-expressing yeast cells)
The experiment in a line: Topoisomerase II DNA strand passage assay (kDNA decatenation), wild-type enzyme. It counts as biochemical. Conditions: for inhibition of DNA strand passage (decatenation) activity, in words: wild-type enzyme, FIG. 2-A and FIG. 5. On the procedure: Topoisomerase II catalytic activity (DNA strand passage activity) was measured by using a filter-based kDNA decatenation assay as described in Jensen et al., 2002. Briefly, 200 ng ^3H labelled kDNA isolated from C. fasciculata was incubated with increasing concentrations of drug in 20 μL reaction buffer containing 10 mM TRIS-HCl pH 7.7, 50 mM NaCl, 50 mM KCl, 5 mM MgCl2, 1 mM EDTA, 15 μg/mL BSA and 1 mM ATP using two units of purified wild-type or Y165S mutant topoisomerase II α for 20 minutes at 37° C. (where one unit of activity is defined as the amount of enzyme required for complete decatenation in the absence of drug). After addition of 5× stop buffer (5% Sarkosyl, 0.0025% bromophenol blue, and 50% glycerol), unprocessed kDNA network and decatenated DNA mini-circles were separated by filtering, and the amount of unprocessed kDNA in each reaction was determined by scintillation counting.
FIG. 2 describes the results of studies of the inhibition of topoisomerase II DNA strand passage activity by increasing concentrations of NSC 35866. Inhibition of human topoisomerase II α DNA strand passage activity was assessed by decatenation of tritium-labelled Crithidia fasiculata kDNA using a filter-based assay to separate unprocessed kDNA network from decatenated mini-circles. […] Error bars represent SEM of three independent experiments in panel A and two independent experiments in panel B.
Inhibition of human topoisomerase II α DNA strand passage activity was determined by decatenation of tritium labelled Crithidia fasiculata kDNA as described for FIG. 2. Error bars represent SEM of 3 or 4 independent experiments.

Data set [2] has as its system human SCLC OC—NYH cells. The experiment in a line: Clonogenic assay, antagonism of etoposide-induced cytotoxicity. It counts as cell-based.
Protocol: Cells were then plated in 0.3% agar in 6 cm petri dishes with sheep red blood cells as feeder layer in triplicate, and were incubated under the same conditions as described above. Plates were counted after 3 weeks.
20 μM etoposide was then added, and the cells were incubated for one hour. Next, the drugs were washed out and the cells were plated and counted after three weeks as described herein.
In data set [3] the test system is human SCLC OC—NYH cells. The experiment in a line: Alkaline elution assay (DNA breaks). It counts as cell-based. To be noted: 3 μM. On the procedure: Alkaline elution assay was performed as described in Kohn et al., 1976 with modifications as described in Sehested et al., 1998. Briefly, to assess the ability of NSC 35866 to protect against etoposide-induced DNA breaks, cells were incubated with increasing concentrations of NSC 35866 for 10 minutes, before 3 μM etoposide was added to the samples. The cells were then co-incubated with 3 μM etoposide along with the same concentrations of NSC 35866 for 60 minutes. Some samples contained no etoposide in order to assess whether NSC 35866 induced DNA breaks by itself. After incubation with drug, cells were lysed and the DNA fragments eluted. DNA in the experimental OC—NYH cells was metabolically labelled by ^14C-thymidine incorporation while DNA in the internal control L1210 cells was metabolically labelled by ^3H-thymidine incorporation.
FIG. 9 describes the results of studies of the ability of NSC 35866 to antagonise DNA breaks induced by etoposide in human SCLC OC—NYH cells in a dose dependent manner. Alkaline DNA elution was used to detect DNA fragmentation induced by 3 μM etoposide in the presence of increasing concentrations of NSC 35866 as described herein. H202 treated mouse leukemic L1210 cells were used as internal control for DNA fragmentation. The DNA of the experimental OC—NYH cells was ^14C-labelled while the DNA of the L1210 cells was 3H-labelled.

Data set [4] concerns the target T2, human topoisomerase II α-DNA covalent complexes (Homo sapiens, UniProt P11388).
T2 construct: made in house; host or cells: yeast (over-expressing yeast cells)
The experiment in a line: Topoisomerase II DNA cleavage assay (phenol-chloroform extraction, Δcpm). Format: biochemical.
Description: In order to determine the ability of NSC 35866 to increase the level of topoisomerase II-DNA covalent complexes on DNA in vitro, a new and highly sensitive topoisomerase II DNA cleavage assay having a numeric readout was developed. […] The DNA substrate is a 950 bp linear ^3H-labelled DNA synthesized by PCR in the presence of ^3H-dATP. […] The DNA fragment was isolated from unincorporated dNTPs by ethanol precipitation at 0.3 M NaCl, followed by washing in 70% ethanol. The specific activity of the fragment was typically 10,000-20,000 cpm/μg. Before starting the assay, a drug dilution series comprising 10× the final drug concentration was made. Reaction mixtures containing 100 ng of the 950 bp linear ^3H-labelled DNA, 300 ng human topoisomerase II q, topoisomerase II cleavage buffer (10 mM TRIS-HCL pH 7.9, 50 mM NaCl, 50 mM KCl, 5 mM MgCl2, 1 mM EDTA, 15 μg/mL BSA and 1 mM Na2ATP), and increasing concentrations of drug in 50 μL reaction volumes were then incubated 10 minutes at 37° C. A “no topoisomerase II” sample and a “no drug” sample were always included as controls. Next, the cleavable complex was trapped by adding 5 μL 10% SDS. After vigorous vortexing, 45 uL TE buffer, pH=8.0, was added to obtain 100 μL per sample. 100 μL phenol:chloroform:isoamyl alcohol (25:24:1) equilibrated with TE buffer, pH=8.0, was then added, and the samples were vortexed vigorously for 30 seconds. Finally, the samples were centrifuged at 20,000 g for 2 minutes and 90 μL of the upper water phase was used for scintillation counting using 15 mL of Ultima gold scintillation fluid (Packard).
In order to establish whether NSC 35866 inhibits the DNA strand passage reaction of topoisomerase II by stabilising a covalent reaction intermediate, a new and highly sensitive topoisomerase II DNA cleavage assay having a numeric read-out was developed. This assay is based on the fact that after extraction with phenol-chloroform, protein-bound DNA is removed from the water phase, while naked DNA remains in the water phase. […] Consequently, in reactions containing topoisomerase II and linear DNA, the ability of compounds to remove DNA from the water phase after phenol-chloroform extraction should reflect their potency as topoisomerase II poisons. This assay was first validated by incubating 100 ng of a linear 950 bp PCR DNA fragment with 300 ng of purified human topoisomerase II α in the presence of increasing concentrations of the etoposide and m-AMSA. The DNA fragment was ^3H labelled by performing PCR in the presence of ^3H-dATP. In these experiments, a “no topoisomerase II” sample was always included to determine the level of radioactivity (DNA) retained in the water-phase when no enzyme is present. Within each experiment, the CPM values retained in the water phase in the topoisomerase II reactions were then subtracted from this background CPM value to give Δcpm. Consequently, the Δcpm values of samples with no drug added represent the background level of topoisomerase II-DNA covalent complexes present in the reaction mixture under the assay conditions, while the Δcpm levels in the presence of drugs represent the levels of poison-induced topoisomerase II-DNA covalent complexes.

[5] abbreviates: in the presence of DNA (DNA-stimulated), read-out: IC50, inhibition of ATPase activity.
Setting [6] is: measured in the absence of DTT, read-out: IC50.

Molecules are shown by their SMILES. Where a name gives a salt, the structure may show the parent alone. Read-outs that look alike come from different tables or passages of the source.

T2 sequence (P11388 whole entry, one chain of several): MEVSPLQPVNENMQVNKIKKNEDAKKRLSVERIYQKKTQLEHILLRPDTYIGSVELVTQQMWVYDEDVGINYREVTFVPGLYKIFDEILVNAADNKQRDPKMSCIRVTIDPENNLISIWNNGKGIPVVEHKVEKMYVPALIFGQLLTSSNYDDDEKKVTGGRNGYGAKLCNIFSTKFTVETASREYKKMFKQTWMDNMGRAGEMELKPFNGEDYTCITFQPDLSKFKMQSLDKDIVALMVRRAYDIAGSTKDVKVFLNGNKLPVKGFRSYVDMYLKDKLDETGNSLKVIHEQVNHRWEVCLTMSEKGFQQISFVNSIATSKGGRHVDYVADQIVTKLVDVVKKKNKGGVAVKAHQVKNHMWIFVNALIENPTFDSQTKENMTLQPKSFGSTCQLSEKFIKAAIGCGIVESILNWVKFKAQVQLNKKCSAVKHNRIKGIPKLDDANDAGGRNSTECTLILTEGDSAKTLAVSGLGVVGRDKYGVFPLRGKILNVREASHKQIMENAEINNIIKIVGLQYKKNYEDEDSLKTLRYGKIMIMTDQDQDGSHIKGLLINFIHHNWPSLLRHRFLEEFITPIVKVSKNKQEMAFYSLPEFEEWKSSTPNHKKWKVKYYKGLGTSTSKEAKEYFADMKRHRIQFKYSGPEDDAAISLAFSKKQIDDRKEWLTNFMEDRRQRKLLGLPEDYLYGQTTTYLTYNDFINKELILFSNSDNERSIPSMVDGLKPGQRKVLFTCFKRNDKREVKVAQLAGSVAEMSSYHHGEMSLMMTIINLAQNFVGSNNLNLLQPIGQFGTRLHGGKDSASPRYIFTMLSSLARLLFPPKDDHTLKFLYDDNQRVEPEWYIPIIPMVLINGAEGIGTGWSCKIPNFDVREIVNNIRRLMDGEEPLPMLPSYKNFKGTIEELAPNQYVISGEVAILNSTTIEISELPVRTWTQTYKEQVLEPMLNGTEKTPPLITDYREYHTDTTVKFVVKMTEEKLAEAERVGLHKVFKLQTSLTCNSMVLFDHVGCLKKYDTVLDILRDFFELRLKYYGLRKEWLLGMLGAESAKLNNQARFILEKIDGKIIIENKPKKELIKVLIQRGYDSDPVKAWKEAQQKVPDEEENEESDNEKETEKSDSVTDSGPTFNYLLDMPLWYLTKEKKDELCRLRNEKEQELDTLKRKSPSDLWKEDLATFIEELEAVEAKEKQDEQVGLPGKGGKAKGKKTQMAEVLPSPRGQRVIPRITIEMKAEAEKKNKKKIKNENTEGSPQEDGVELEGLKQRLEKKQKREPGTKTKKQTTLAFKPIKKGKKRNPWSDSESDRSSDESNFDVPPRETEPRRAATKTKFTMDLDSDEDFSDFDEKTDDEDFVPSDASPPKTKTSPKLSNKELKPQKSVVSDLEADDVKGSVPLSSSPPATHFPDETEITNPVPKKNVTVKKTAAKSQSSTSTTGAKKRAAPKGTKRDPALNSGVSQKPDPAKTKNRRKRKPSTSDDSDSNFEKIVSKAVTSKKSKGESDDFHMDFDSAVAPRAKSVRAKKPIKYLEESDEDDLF
T1 sequence (P11388 whole entry): as the sequence (P11388 whole entry, one chain of several) above
topoisomerase II α, sequence (P11388 whole entry): as the sequence (P11388 whole entry, one chain of several) above

For `S=c1[nH]c(=S)c2[nH]cnc2[nH]1` [2,6-dithiopurine], the IC50 on topoisomerase II α (setting [5]) was ~3 µM. The “inhibition of DNA strand passage (decatenation) activity, in words” value in data set [1] is “an effect between that of the two 6-substituted thiopurines”. Besides, the “effect on the level of etoposide-induced cytotoxicity, in words” value (shortened to “effect on the level”) in the data set with human SCLC OC—NYH cells [2] (concentrations up to 30 μM) is “no detectable effect”. Taken in the same sequence, the figures for `Sc1ncc2nc[nH]c2n1` [2-thiopurine] were ~3 µM, “virtually no effect” and “no detectable effect”. As for `Nc1nc(Cl)c2nc[nH]c2n1` [6-chloroguanine, reference compound], on topoisomerase II α (concentration not given), the “inhibitory effect on ATPase reaction, in words” value (“inhibitory effect” below) was “no inhibitory effect”. As for `CSc1nc(N)nc2nc[nH]c12` [6-methylthioguanine], the “inhibitory effect” value against topoisomerase II α (concentration not given) is “capable of inhibiting topoisomerase II ATPase activity”. For the same compound, in data set [1], the “inhibition of DNA strand passage (decatenation) activity, in words” value was “almost no inhibition of decatenation activity”. In the data set with human SCLC OC—NYH cells [2] (concentrations up to 500 μM), the “effect on the level” value is on record as “no detectable effect”. Regarding `Nc1nc2nc[nH]c2c(=S)[nH]1` [6-thioguanine, reference compound], the IC50 on topoisomerase II α (setting [5]) was ~30 µM; in data set [1] (FIG. 5, read-out: half-maximal inhibition of DNA strand passage activity), ~50 µM. Take `Sc1ncnc2nc[nH]c12` [6-thiopurine]: the IC50 on topoisomerase II α (setting [5]) was ~100 µM. For the same compound, in data set [1] (FIG. 5), the “concentration at which maximal inhibition of DNA strand passage activity is reached” value was > 1000 µM. The “effect on the level” value in the data set on human SCLC OC—NYH cells [2] (concentrations up to 300 μM) is listed as “no detectable effect”. For the compound `Nc1nc2c(ncn2Cc2ccccc2)c(=O)[nH]1` [9-benzylguanine, reference compound], the “inhibitory effect” value against topoisomerase II α (concentrations up to 300 μM) is “no inhibitory effect”. Consider `Nc1nc(SCc2ccccc2)c2[nH]cnc2n1` [NSC15747], for which, on topoisomerase II α (setting [6]), the IC50 came out at 13.4 µM. Turning to `CCCCCSc1nc(N)nc2[nH]cnc12` [NSC35862], the IC50 at topoisomerase II α (setting [6]) was 85.4 µM. The same measure, in the same setting: in the case of `Nc1nc(SCc2ccc(F)cc2)c2nc[nH]c2n1` [NSC35865] it was 53.6 µM. With `Nc1nc(SC/C=C/c2ccccc2)c2nc[nH]c2n1` [NSC36824], the IC50 on topoisomerase II α (setting [6]) amounted to 68.9 µM. For `CNc1ncnc(Sc2nc(N)nc3[nH]cnc23)c1[N+](=O)[O-]` [NSC38732], the IC50 on topoisomerase II α (setting [6]) amounted to 34.1 µM. Consider `Nc1nc(SCCCc2ccccc2)c2nc[nH]c2n1` [NSC39328], for which the IC50 on topoisomerase II α (setting [6]) was found to be 151 µM. The same measure, in the same setting: in the case of `N#CCSc1nc(N)nc2[nH]cnc12` [NSC39331] it was 19 µM; in that of `CCn1c(C)nc([N+](=O)[O-])c1Sc1nc(N)nc2[nH]cnc12` [NSC42375], 7.87 µM; in that of `Cc1ccc(CSc2nc(N)nc3[nH]cnc23)cc1` [NSC46384], 14.1 µM. The same measure, in the same setting: in the case of `CSc1nc(Cl)c(Br)c(Sc2nc(N)nc3[nH]cnc23)n1` [NSC52383] it was 12.7 µM; in that of `CCSc1nc(N)c(Br)c(Sc2nc(N)nc3[nH]cnc23)n1` [NSC52388], 36.4 µM. Take `Cn1cnc([N+](=O)[O-])c1Sc1nc(N)nc2c1ncn2C1CC(O)C(CO)O1` (stereo not shown) [NSC172614]: the IC50 at topoisomerase II α (setting [6]) worked out at 121 µM.

As to `CCOC(=O)c1cc([N+](=O)[O-])c(Sc2ncnc3[nH]cnc23)c([N+](=O)[O-])c1` [NSC244708], at topoisomerase II α (setting [6]), the IC50 came out at 2.74 µM.

With `Nc1nc(Sc2cc([N+](=O)[O-])c3nonc3c2)c2ncn(C3OC(CO)C(O)C3O)c2n1` (stereo not shown) [NSC348400], on topoisomerase II α (setting [6]), the IC50 is 0.389 µM. Same read-out and setting: to `Nc1nc(Sc2ccc([N+](=O)[O-])c3nonc23)c2[nH]cnc2n1` [NSC348401] belongs 0.372 µM; to `O=[N+]([O-])c1ccc(Sc2ncnc3[nH]cnc23)c2nonc12` [NSC348402], 0.777 µM; to `CC(=O)OCSc1ncnc2c1ncn2CN1CCOCC1` [NSC647471], 119 µM. `Nc1nc(OCC2CCCCC2)c2nc[nH]c2n1` [NU 2058, O^6-cyclohexylmethylguanine]: the “inhibition of ATPase activity in the presence of DTT, in words” value on topoisomerase II α is listed as “could inhibit ATPase activity”. Moreover, the IC50 on topoisomerase II α (setting [5]) stood at 300 µM. Take `Nc1nc(OCc2ccccc2)c2nc[nH]c2n1` [O^6-benzylguanine]: on topoisomerase II α, the “inhibition of ATPase activity in the presence of DTT, in words” value is on record as “could inhibit ATPase activity”. Moreover, the IC50 on topoisomerase II α (setting [5]) came out at 1000 µM. In the case of `COc1nc(N)nc2nc[nH]c12` [O^6-methylguanine, reference compound], the “inhibitory effect” value on topoisomerase II α (concentrations up to 300 μM) is listed as “no detectable inhibitory effect”. Regarding `Nc1nc2c(ncn2COCCO)c(=O)[nH]1` [acyclovir, 9-[(2-hydroxyethoxy)methyl]guanine, reference compound], the “inhibitory effect” value against topoisomerase II α (concentrations up to 300 μM) is “no inhibitory effect”.

Turning to `Cn1cnc([N+](=O)[O-])c1Sc1ncnc2nc[nH]c12` [azathioprine, 6-(1-methyl-4-nitroimidazol-5-yl)thiopurine, reference compound], the “inhibitory effect” value at topoisomerase II α (concentration not given) is on record as “capable of inhibiting topoisomerase II ATPase activity”. The “effect on the level” value in the data set with human SCLC OC—NYH cells [2] (concentrations up to 500 μM) is “no detectable effect”.

Regarding `COc1cc([C@@H]2c3cc4c(cc3[C@@H](O[C@@H]3O[C@@H]5CO[C@@H](C)O[C@H]5[C@H](O)[C@H]3O)[C@H]3COC(=O)[C@H]23)OCO4)cc(OC)c1O` [etoposide, 4′-demethylepipodophyllotoxin 9-(4,6-O-ethylidene-b-D-glucopyranoside)], in the data set on human SCLC OC—NYH cells [3], the “DNA fragmentation by the drug alone, in words” value is on record as “extensive fragmentation of DNA”. For the same compound, the “effect on Δcpm with increasing concentrations, in words” value in data set [4] (ATP omitted from the reaction) is recorded as “no detectable increase in Δcpm”; in data set [4] (with ATP, FIG. 6) it was “increase Δcpm in a dose-dependent manner”. Besides, in data set [4] (etoposide up to 40 μM, with ATP), the “increase of the level of covalent complex formation, factor” value is recorded as 6.

In the case of `COc1cc(NS(C)(=O)=O)ccc1Nc1c2ccccc2nc2ccccc12` [m-AMSA, methanesulfone-m-anisidine-4′-[(9-acridinyl)amino] hydrochloride], the “effect on Δcpm with increasing concentrations, in words” value in data set [4] (with ATP, FIG. 6) was “increase Δcpm in a dose-dependent manner”.
